The subject of this experiment is spores of Aspergillus niger and Aspergillus versicolor. The experiment is described as follows: ISO 846 Method B: determination of the fungistatic activity of films, complete nutrient medium with carbon source. Format: cell-based. The following applies: summary of ISO 846 loading tests (methods A and B). The procedure: Commercially conventional dispersions based on poly(vinyl alcohol)-stabilized poly(dibutyl maleinate-co-vinyl acetate) were, where necessary, set to the required pH using 10% strength sodium hydroxide solution and subsequently finished with fungicide. In addition, to the dispersion was added either a 1% strength ethanolic solution of the fungicide or an aqueous suspension which had been prepared by weighing out exactly 500 mg of fungicide into a 50 ml measuring flask and subsequently making up to 50 ml with deionized water to the calibration mark. After addition, the substance was distributed well in the dispersion and approximately 200 μm thick films were produced using a drawing frame with wet application of 400 μm.
The action of these films on microorganisms was determined using the method ISO 846.
The samples were applied to a complete nutrient medium (with carbon source) and inoculated with a spore suspension of various fungi. […] Method B is intended to reflect the situation of a surface contamination of the sample in practice (such as dirt or organic deposits).
The inoculum in all the determinations was performed using spores of Aspergillus niger and Aspergillus versicolor.
The samples, after expiry of the incubation period of 28 days, were assessed in methods A and B using the following rating key in accordance with ISO 846 (a, b=individual results of duplicate determination).

With `Oc1ccc(/C=C/c2cc(O)cc(O)c2)cc1` [trans-resveratrol, trans-3,5,4′-trihydroxystilbene], the “fungicidal activity in polymer dispersions made into films” value was “exhibits fungicidal activity”.

The record behind these values is patent publication US20080139650A1, “Fungicidally Active Polymer Dispersions And Use Thereof” (CELANESE EMULSIONS GMBH, priority 2004, published 2008).
